# Data taken from US8003797B2, “Pyridine carboxamide orexin receptor antagonists” (Merck Sharp & Dohme Corp., priority 2007, dated 2011).
# Target: T1, OX2R (Homo sapiens, UniProt O43614)
# T1 construct: expressed in transfected cells; host or cells: CHO cells (membranes)
# T1 sequence (O43614 1-444): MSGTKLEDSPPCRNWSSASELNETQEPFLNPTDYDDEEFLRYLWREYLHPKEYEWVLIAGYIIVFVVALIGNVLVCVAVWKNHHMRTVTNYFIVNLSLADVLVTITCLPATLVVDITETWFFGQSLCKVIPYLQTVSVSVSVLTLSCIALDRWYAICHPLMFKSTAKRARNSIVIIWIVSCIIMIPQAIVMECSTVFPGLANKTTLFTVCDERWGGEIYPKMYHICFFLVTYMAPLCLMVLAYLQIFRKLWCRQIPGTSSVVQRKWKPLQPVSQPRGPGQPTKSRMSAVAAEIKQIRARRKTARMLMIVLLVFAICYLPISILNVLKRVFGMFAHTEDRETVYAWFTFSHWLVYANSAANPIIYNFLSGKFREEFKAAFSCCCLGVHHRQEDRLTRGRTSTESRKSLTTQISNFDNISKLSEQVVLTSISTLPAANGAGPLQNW
# Experiment: radioligand binding assay, OX2 receptor
# Conditions: membranes prepared from CHO cells expressing the OX2 receptor
# Protocol: In a typical experiment the OX1 and OX2 receptor antagonistic activity of the compounds of the present invention was determined in accordance with the following experimental method. For intracellular calcium measurements, Chinese hamster ovary (CHO) cells expressing the rat orexin-1 receptor or the human orexin-2 receptor, are grown in Iscove's modified DMEM containing 2 mM L-glutamine, […], 1% hypoxanthine-thymidine supplement, 100 U/ml penicillin, 100 ug/ml streptomycin and 10% heat-inactivated fetal calf serum (FCS). The cells are seeded at 20,000 cells/well into Becton-Dickinson black 384-well clear bottom sterile plates coated with poly-D-lysine. All reagents were from GIBCO-Invitrogen Corp. The seeded plates are incubated overnight at 37° C. and 5% CO2. Ala-6,12 human orexin-A as the agonist is prepared as a 1 mM stock solution in 1% bovine serum albumin (BSA) and diluted in assay buffer (HBSS containing 20 mM HEPES, 0.1% BSA and 2.5 mM probenecid, pH7.4) for use in the assay at a final concentration of 70 pM. Test compounds are prepared as 10 mM stock solution in DMSO, then diluted in 384-well plates, first in DMSO, then assay buffer. On the day of the assay, cells are washed 3 times with 100 ul assay buffer and then incubated for 60 min (37° C., 5% CO2) in 60 ul assay buffer containing 1 uM Fluo-4AM ester, 0.02% pluronic acid, and 1% BSA. The dye loading solution is then aspirated and cells are washed 3 times with 100 ul assay buffer. 30 ul of that same buffer is left in each well. Within the Fluorescent Imaging Plate Reader (FLIPR, Molecular Devices), test compounds are added to the plate in a volume of 25 ul, incubated for 5 min and finally 25 ul of agonist is added. Fluorescence is measured for each well at 1 second intervals for 5 minutes and the height of each fluorescence peak is compared to the height of the fluorescence peak induced by 70 pM Ala-6,12 orexin-A with buffer in place of antagonist. For each antagonist, IC50 value (the concentration of compound needed to inhibit 50% of the agonist response) is determined. Alternatively, compound potency can be assessed by a radioligand binding assay (described in Bergman et. al. Bioorg. Med. Chem. Lett. 2008, 18, 1425-1430) in which the inhibition constant (Ki) is determined in membranes prepared from CHO cells expressing either the OX1 or OX2 receptor. The intrinsic orexin receptor antagonist activity of a compound which may be used in the present invention may be determined by these assays.
row,Molecule,Ki [nM]
1,"COc1ccc(CNC(=O)c2cc(-c3cncc(Cl)c3)cnc2-c2ccccc2)nc1OC [3-15, 5′-chloro-N-[(5,6-dimethoxypyridin-2-yl)methyl]-6-phenyl-3,3′-bipyridine-5-carboxamide]",0.45
2,"5-(3,5-chloromethylphenyl)-N-[(1,4-dimethyl-1,2,3,4-tetrahydroquinoxalin-6-yl)methyl]-2-(1-methyl-1H-pyrazol-4-yl)nicotinamide [2-14]",0.15
3,"COc1ccc(CNC(=O)c2cc(-c3cncc(C)c3)cnc2N2CCOCC2)nc1OC [4-13, N-[(5,6-dimethoxypyridin-2-yl)methyl]-5′-methyl-6-morpholin-4-yl-3,3′-bipyridine-5-carboxamide]",1.1
4,"COc1cc(CNC(=O)c2cc(-c3cc(C)cc(C)c3)cnc2-c2cnn(C)c2)cnc1OC [1-13, N-[(5,6-dimethoxypyridin-3-yl)methyl]-5-(3,5-dimethylphenyl)-2-(1-methyl-1H-pyrazol-4-yl)nicotinamide]",4.8
5,"Cc1[nH]c2cc(CNC(=O)c3cc(-c4cc(Cl)cc(Cl)c4)cnc3-c3cnn(C)c3)ccc2c1C [1-14, 5-(3,5-dichlorophenyl)-N-[(2,3-dimethyl-1H-indol-6-yl)methyl]-2-(1-methyl-1H-pyrazol-4-yl)nicotinamide]",0.07

# Second part, the molecule after the results:
row,Ki [nM],Molecule
1,0.45,"COc1ccc(CNC(=O)c2cc(-c3cc(C)cc(Cl)c3)cnc2N2CCCC2)cc1OC [4-5, 5-(3-chloro-5-methylphenyl)-N-(3,4-dimethoxybenzyl)-2-pyrrolidin-1-ylnicotinamide]"
2,0.95,"COc1ccc(CNC(=O)c2cc(-c3cncc(C)c3)cnc2-n2ccc(C)n2)cc1Cl [5-11, N-(3-chloro-4-methoxybenzyl)-5′-methyl-6-(3-methyl-1H-pyrazol-1-yl)-3,3′-bipyridine-5-carboxamide]"
3,2.3,"COc1ccc(CNC(=O)c2cc(-c3cncc(C)c3)cnc2C2CCCC2)cc1OC [6-5, 6-cyclopentyl-N-(3,4-dimethoxybenzyl)-5-methyl-3,3′-bipyridine-5-carboxamide]"
4,0.32,"COc1ccc(CNC(=O)c2cc(-c3cncc(C)c3)cnc2-c2cccc(F)c2)nc1OC [3-7, N-[(5,6-dimethoxypyridin-2-yl)methyl]-6-(3-fluorophenyl)-5′-methyl-3,3′-bipyridine-5-carboxamide]"
